# Test results from PMC5338263, “GS-5734 and its parent nucleoside analog inhibit Filo-, Pneumo-, and Paramyxoviruses” (Scientific Reports, 2017).
# Read-outs that look alike come from different tables or passages of the source.
# Columns and labels:
# [1] = Cell viability assay (CellTiter-Glo 2.0), A549; settings: human, uninfected A549 cells
# [2] = tested on: OHFV Bogoluvovska (Omsk Hemorrhagic Fever virus); test: in vitro; settings: human
# [3] = tested on: AHFV 200300001
# [4] = Cell viability assay (CellTiter-Glo 2.0), HMVEC-L; settings: human
# [5] = tested on: Pneumo; test: Potency by virus family (Fig. 2), Pneumo; format: cell-based; settings: read-out: potency class (EC50)
# [6] = tested on: Corona (coronaviruses); settings: cited from earlier work
# [7] = tested on: RSV Rec. rgRSV224 (A2)
# [8] = tested on: MARV Rec. Bat371-Gluc (Marburg virus); test: in vitro; settings: human
# [9] = tested on: Ebola virus; settings: in vivo; cited from earlier work
# [10] = tested on: NiV minigenome; test: cells; format: cell-based, Nipah virus
# [11] = tested on: SARS-CoV; settings: cited from earlier work
# [12] = tested on: MuV IA 2006
# [13] = tested on: WNV; settings: cited from earlier work
Compound,CC50 at 72 h [1] [µM],selectivity ratio [2],EC50 [3] [µM],CC50 at 72 h [4] [µM],EC50 [5] [µM],activity in cell-based antiviral assays [6],EC50 [7] [µM],selectivity ratio [8],protection from lethal Ebola virus infection [9],EC50 [10],"EC50 ([10]; Henipavirus nipahense, HeLa, 48 h) [µM]",antiviral activity (active or not) [11],EC50 [12] [µM],antiviral activity (active or not) [13]
CCC(CC)COC(=O)[C@H](C)N[P@](=O)(OC[C@H]1O[C@@](C#N)(c2ccc3c(N)ncnn23)[C@H](O)[C@@H]1O)Oc1ccccc1 [GS-5734],> 10,8.3,4.2,8.5,< 0.1,shown activity,0.021,526,protected,sub-micromolar range,0.049,–,–,–
N#C[C@@]1(c2ccc3c(N)ncnn23)O[C@H](CO)[C@@H](O)[C@H]1O [Nuc],–,–,–,–,–,–,–,–,–,–,–,shown to have activity,9.7,not
